Test results taken from patent US5645072A, “Real time chemical exposure and risk monitor” (priority 1995, dated 1997).

Legend:
[1] = cited from earlier work
[2] = Paustenbach et al., 1988, cited from earlier work
[3] = Real-time measurement of CCl4 in combined exhaled breath of rats after a single intravenous injection (TAGA tandem mass spectrometer); type: in vivo, male Fischer 344 rat
Excerpt: Male, Fischer 344 rats, weighing 225-275 g, were purchased either with, or without, indwelling jugular vein cannulas from Charles River, Inc., Raleigh, N.C. Animals were housed singularly in solid-bottom cages with hardwood chips, and were acclimated on a 12-hr light/dark cycle prior to use. Rodent chow (NIH-07) and water were provided ad libitum throughout the acclimation period. Cannulas were maintained by periodic flushing with heparinized saline.
In three different experiments, either two or four animals were placed in nose-only restraint tubes (C. H. Technologies, Westwood, N.J.) with access slots that allow the cannulas to be exteriorized from the animal. Each animal restrainer was connected via a nose port to the rat manifold. The exhaled breath from the rat exited the nose port and was driven into a common mixing chamber by a continuous flow of supplied breathing air. Samples for analysis by the mass spectrometer were continually drawn from the contents of the mixing chamber. Rats placed in restraint tubes are connected to the manifold. The exhaled breath from each animal is passed into a common heated mixing chamber, where the mass spectrometer draws a sample via a drying tube.
Each animal received a single intravenous injection of CCl4 in isotonic saline, either through the Jugular vein cannula, or via the tail vein. In the first experiment, two animals were utilized, each receiving a dose of 0.6 mg/kg body weight (BW) (250 μl volume) through the jugular vein cannula. Cannulas were flushed with saline immediately following injection. The second and third experiments utilized 4 animals each, with each animal receiving a dose of 1.5 mg/kg BW (1 ml volume) through the tail vein. In all cases, the length of time of injection was approximately 1 minute. The combined exhaled breath from the exposed animals was measured continuously to determine the concentration of CCl4 exhaled. The resulting concentration data were adjusted to account for dilution by the flow of supplied breathing air and divided by the number of rats to allow expression as ng CCl4 /l air per rat.
The expired breath from the rats was monitored by interfacing the rats to a tandem mass spectrometer. The manifold was a modification of a human breath interface patented by Kenny and Kelly (1991) U.S. Pat. No. 5,042,501 herein incorporated by reference. This device can accommodate up to six rats connected by the nose-only restraint tubes mentioned above. Breathing air (1000 ml/min) is constantly supplied to the rats through the center tube (175 ml volume) of the manifold at a rate greater than the combined ventilation rate of the animals on the system, and can be adjusted for the number of rats being monitored. Re-breathing of the exhaled air was considered to be negligible. The exhaled breath from each rat flows into a common heated mixing chamber (300 ml volume) from which the mass spectrometer continuously draws its sample. The excess exhaled air is vented from the mixing chamber with negligible flow restriction via a large bore hole exit tube. Intensity data from the mass spectrometer was converted to concentration (ppb) through the use of external standards and a calibration curve for carbon tetrachloride. A new calibration curve was generated each day of experimentation.
During these experiments, the expired breath of the rats was monitored in real-time using a Sciex Trace Atmospheric Gas Analyzer (TAGA) 6000E tandem mass spectrometer (Sciex, Thornhill, Ontario, Canada) equipped with a low-pressure chemical ionization source (LPCI). The TAGA combines sampling and analysis into one rapid operation, while maintaining a very high level of sensitivity and selectivity (Dawson et al. 1982a; 1982b). The TAGA consists of a LPCI source and two mass filters in series, separated by a gas-collision region. Organic molecules in the sampled air stream are ionized directly at approximately 1 torr by the chemical reactions generated about a Townsend discharge electrode. […]

[4] = 0.6 mg/kg BW, jugular vein cannula, two rats, FIG. 3a

## ClC(Cl)(Cl)Cl [CCl4, carbon tetrachloride]
[1]; Gargas et al., 1986b
  Partition coefficient Blood: Air: 4.52
  Partition coefficient Liver: Blood: 3.14
  Partition coefficient Slowly perfused: Blood: 2.0
[1]; Set equivalent to partition coefficient for liver: blood
  Partition coefficient Richly perfused: Blood: 3.14
[2]; body weight 250 g
  Vmaxc (Metabolism): 13.8 μg CCl4 /min per kg
[2]
  Km (Metabolism): 0.25 µg/mL
[3]; [4]
  first pass elimination through the lung: extremely rapid
  levels available for subsequent distribution into the entire blood volume: very low levels
[3]; 1.5 mg/kg BW, tail vein, four rats, FIG. 3b, compared with jugular vein
  fraction of CCl4 held up in the circulating blood supply: larger fraction
[3]; 1.5 mg/kg BW, tail vein, four rats, FIG. 3b, repeat gave same pattern
  elimination through the lung (exhalation profile): initial sharp peak
[3]; FIGS. 3a and 3b, single i.v. injection
  time for which the decay of the CCl4 can be followed after the injection before returning to baseline: 30 to 35 min
[3]; rat, exhaled breath, iv, single i.v. injection, 0.6 mg/kg jugular vein or 1.5 mg/kg tail vein, consistent with calculated sample-introduction delay (28.5 seconds), read-out: peak concentration of CCl4 in exhaled breath occurred in (time from the end of the injection) (converted)
  Tmax: ~30 s
[3]; single i.v. injection of CCl4
  acetone in exhaled breath (biomarker of CCl4-induced lipid peroxidation): not detectable
